Assay results: US9271993B2, “Treatment of bacterial infectious diseases” (priority 2010, dated 2016)
Read-outs that look alike come from different tables or passages of the source.

Assays:
[1] = test system: clinical isolates of M. tuberculosis; format: cell-based
[2] = test system: clinical isolates of multidrug-resistant M. tuberculosis

Compound: CNC1C(OC2OC(CO)C(N)C(O)C2O)OC2CC(N)C(OC3C(N)CC(N)C(O)C3O)OC2C1O (centres unmarked) [Apramycin]
- Activity (resistant/susceptible) ([1]; strain 176949/08, 0.25 μg/ml): R
- Activity (resistant/susceptible) ([1]; strain 176949/08, 1 μg/ml): S
- Activity (resistant/susceptible) ([1]; strain 176949/08, 4 μg/ml): S
- Activity (resistant/susceptible) ([1]; strain 177581/08, 0.25 μg/ml): R
- Activity (resistant/susceptible) ([1]; strain 177581/08, 1 μg/ml): S
- Activity (resistant/susceptible) ([1]; strain 177581/08, 4 μg/ml): S
- Activity (resistant/susceptible) ([1]; strain 177712/08, 0.25 μg/ml): R
- Activity (resistant/susceptible) ([1]; strain 177712/08, 1 μg/ml): S
- Activity (resistant/susceptible) ([1]; strain 177712/08, 4 μg/ml): S
- Activity (resistant/susceptible) ([1]; strain 177809/08, 0.25 μg/ml): R
- Activity (resistant/susceptible) ([1]; strain 177809/08, 1 μg/ml): S
- Activity (resistant/susceptible) ([1]; strain 177809/08, 4 μg/ml): S
- Activity (resistant/susceptible) ([1]; strain 177958/08, 0.25 μg/ml): R
- Activity (resistant/susceptible) ([1]; strain 177958/08, 1 μg/ml): S
- Activity (resistant/susceptible) ([1]; strain 177958/08, 4 μg/ml): S
- Activity (resistant/susceptible) ([1]; strain 178122/08, 0.25 μg/ml): R
- Activity (resistant/susceptible) ([1]; strain 178122/08, 1 μg/ml): S
- Activity (resistant/susceptible) ([1]; strain 178122/08, 4 μg/ml): S
- Activity (resistant/susceptible) ([1]; strain 178242/08, 0.25 μg/ml): R
- Activity (resistant/susceptible) ([1]; strain 178242/08, 1 μg/ml): S
- Activity (resistant/susceptible) ([1]; strain 178242/08, 4 μg/ml): S
- Activity (resistant/susceptible) ([1]; strain 178331/08, 0.25 μg/ml): R
- Activity (resistant/susceptible) ([1]; strain 178331/08, 1 μg/ml): S
- Activity (resistant/susceptible) ([1]; strain 178331/08, 4 μg/ml): S
- Activity (resistant/susceptible) ([1]; strain 178557/08, 0.25 μg/ml): R
- Activity (resistant/susceptible) ([1]; strain 178557/08, 1 μg/ml): S
- Activity (resistant/susceptible) ([1]; strain 178557/08, 4 μg/ml): S
- Activity (resistant/susceptible) ([1]; strain 178594/08, 0.25 μg/ml): R
- Activity (resistant/susceptible) ([1]; strain 178594/08, 1 μg/ml): S
- Activity (resistant/susceptible) ([1]; strain 178594/08, 4 μg/ml): S
- Activity (resistant/susceptible) ([2]; strain 186002/10, 0.25 μg/ml): R
- Activity (resistant/susceptible) ([2]; strain 186002/10, 1 μg/ml): S
- Activity (resistant/susceptible) ([2]; strain 186002/10, 4 μg/ml): S
- Activity (resistant/susceptible) ([2]; strain 186002/10, 10 μg/ml): S
- Activity (resistant/susceptible) ([2]; strain 186005/09, 0.25 μg/ml): R
- Activity (resistant/susceptible) ([2]; strain 186005/09, 1 μg/ml): S
- Activity (resistant/susceptible) ([2]; strain 186005/09, 4 μg/ml): S
- Activity (resistant/susceptible) ([2]; strain 186005/09, 10 μg/ml): S
- Activity (resistant/susceptible) ([2]; strain 186010/09, 0.25 μg/ml): R
- Activity (resistant/susceptible) ([2]; strain 186010/09, 1 μg/ml): S
- Activity (resistant/susceptible) ([2]; strain 186010/09, 4 μg/ml): S
- Activity (resistant/susceptible) ([2]; strain 186010/09, 10 μg/ml): S
- Activity (resistant/susceptible) ([2]; strain 186013/09, 0.25 μg/ml): R
- Activity (resistant/susceptible) ([2]; strain 186013/09, 1 μg/ml): S
- Activity (resistant/susceptible) ([2]; strain 186013/09, 4 μg/ml): S
- Activity (resistant/susceptible) ([2]; strain 186013/09, 10 μg/ml): S
- Activity (resistant/susceptible) ([2]; strain 186014/09, 0.25 μg/ml): R
- Activity (resistant/susceptible) ([2]; strain 186014/09, 1 μg/ml): S
- Activity (resistant/susceptible) ([2]; strain 186014/09, 4 μg/ml): S
- Activity (resistant/susceptible) ([2]; strain 186014/09, 10 μg/ml): S

Compound: [H]/N=C(/N)N[C@H]1[C@H](O)[C@@H](O)[C@H](O[C@@H]2O[C@@H](C)[C@](O)(C=O)[C@H]2O[C@@H]2O[C@@H](CO)[C@H](O)[C@@H](O)[C@@H]2NC)[C@@H](N/C(N)=N\[H])[C@@H]1O [Streptomycin]
- Activity (resistant/susceptible) ([1]; strain 176949/08, 0.25 μg/ml): S
- Activity (resistant/susceptible) ([1]; strain 176949/08, 1 μg/ml): S
- Activity (resistant/susceptible) ([1]; strain 176949/08, 4 μg/ml): S
- Activity (resistant/susceptible) ([1]; strain 177581/08, 0.25 μg/ml): S
- Activity (resistant/susceptible) ([1]; strain 177581/08, 1 μg/ml): S
- Activity (resistant/susceptible) ([1]; strain 177581/08, 4 μg/ml): S
- Activity (resistant/susceptible) ([1]; strain 177958/08, 0.25 μg/ml): R
- Activity (resistant/susceptible) ([1]; strain 177958/08, 1 μg/ml): S
- Activity (resistant/susceptible) ([1]; strain 177958/08, 4 μg/ml): S
- Activity (resistant/susceptible) ([1]; strain 178331/08, 0.25 μg/ml): R
- Activity (resistant/susceptible) ([1]; strain 178331/08, 1 μg/ml): S
- Activity (resistant/susceptible) ([1]; strain 178331/08, 4 μg/ml): S
- Activity (resistant/susceptible) ([1]; strain 178557/08, 0.25 μg/ml): R
- Activity (resistant/susceptible) ([1]; strain 178557/08, 1 μg/ml): S
- Activity (resistant/susceptible) ([1]; strain 178557/08, 4 μg/ml): S

Compound: NCC[C@H](O)C(=O)N[C@@H]1C[C@H](N)[C@@H](O[C@H]2O[C@H](CN)[C@@H](O)[C@H](O)[C@H]2O)[C@H](O)[C@H]1O[C@H]1O[C@H](CO)[C@@H](O)[C@H](N)[C@H]1O [Amikacin]
- Activity (resistant/susceptible) ([1]; strain 176949/08, 0.25 μg/ml): R
- Activity (resistant/susceptible) ([1]; strain 176949/08, 1 μg/ml): S
- Activity (resistant/susceptible) ([1]; strain 176949/08, 4 μg/ml): S
- Activity (resistant/susceptible) ([1]; strain 177581/08, 0.25 μg/ml): R
- Activity (resistant/susceptible) ([1]; strain 177581/08, 1 μg/ml): S
- Activity (resistant/susceptible) ([1]; strain 177581/08, 4 μg/ml): S
- Activity (resistant/susceptible) ([1]; strain 177958/08, 0.25 μg/ml): R
- Activity (resistant/susceptible) ([1]; strain 177958/08, 1 μg/ml): S
- Activity (resistant/susceptible) ([1]; strain 177958/08, 4 μg/ml): S
- Activity (resistant/susceptible) ([1]; strain 178331/08, 0.25 μg/ml): R
- Activity (resistant/susceptible) ([1]; strain 178331/08, 1 μg/ml): S
- Activity (resistant/susceptible) ([1]; strain 178331/08, 4 μg/ml): S
- Activity (resistant/susceptible) ([1]; strain 178557/08, 0.25 μg/ml): R
- Activity (resistant/susceptible) ([1]; strain 178557/08, 1 μg/ml): S
- Activity (resistant/susceptible) ([1]; strain 178557/08, 4 μg/ml): S
